Test results: patent publication US20260297081A1, “COMPOUNDS AND METHODS OF TREATING CANCERS” (Cullgen Inc., priority 2023, published 2026)

Tests used:
MCF7 cells = experiment: Anti-proliferation (viability) of MCF7 cells (Table 7, FIG. 2B); assay type: cell-based; details: Homo sapiens, MCF7, MCF7 cells, 3-6 days, 10-point serial dilution; read-out: GI IC50 in MCF-7
CDK4 = CDK4 (Homo sapiens, UniProt P11802+Q16531); experiment: CDK4 percentage degradation in Calu-1 cells (Table 6); assay type: cell-based; parameters: Cells that express cyclin D1-3 and CDK4/6 proteins were treated with heterobifunctional compounds; endogenous in cells; host or cells: Calu-1; details: 16 hours; for inhibition at 0.04 µM: 40 nM; for inhibition at 0.2 µM: 200 nM
Chain of CDK4 (P11802 2-303 limits assumed): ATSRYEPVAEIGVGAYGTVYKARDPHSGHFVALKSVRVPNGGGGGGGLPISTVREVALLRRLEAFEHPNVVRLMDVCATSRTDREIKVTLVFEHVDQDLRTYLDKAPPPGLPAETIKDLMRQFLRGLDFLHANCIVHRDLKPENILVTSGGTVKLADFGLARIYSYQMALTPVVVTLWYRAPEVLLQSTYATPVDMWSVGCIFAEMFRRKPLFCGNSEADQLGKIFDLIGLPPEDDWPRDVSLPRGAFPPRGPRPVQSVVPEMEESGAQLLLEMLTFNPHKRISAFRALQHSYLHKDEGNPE
Chain of CDK4 (P24385 whole entry partner): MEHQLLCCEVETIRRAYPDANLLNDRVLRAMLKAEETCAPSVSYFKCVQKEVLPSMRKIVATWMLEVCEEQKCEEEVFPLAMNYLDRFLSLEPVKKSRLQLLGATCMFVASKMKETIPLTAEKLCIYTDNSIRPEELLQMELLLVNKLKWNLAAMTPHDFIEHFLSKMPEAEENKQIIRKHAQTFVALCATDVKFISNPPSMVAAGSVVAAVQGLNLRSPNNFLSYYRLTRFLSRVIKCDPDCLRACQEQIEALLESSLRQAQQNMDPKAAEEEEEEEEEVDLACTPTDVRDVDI
Chain of CDK4 (Q16531 2-1140 limits assumed): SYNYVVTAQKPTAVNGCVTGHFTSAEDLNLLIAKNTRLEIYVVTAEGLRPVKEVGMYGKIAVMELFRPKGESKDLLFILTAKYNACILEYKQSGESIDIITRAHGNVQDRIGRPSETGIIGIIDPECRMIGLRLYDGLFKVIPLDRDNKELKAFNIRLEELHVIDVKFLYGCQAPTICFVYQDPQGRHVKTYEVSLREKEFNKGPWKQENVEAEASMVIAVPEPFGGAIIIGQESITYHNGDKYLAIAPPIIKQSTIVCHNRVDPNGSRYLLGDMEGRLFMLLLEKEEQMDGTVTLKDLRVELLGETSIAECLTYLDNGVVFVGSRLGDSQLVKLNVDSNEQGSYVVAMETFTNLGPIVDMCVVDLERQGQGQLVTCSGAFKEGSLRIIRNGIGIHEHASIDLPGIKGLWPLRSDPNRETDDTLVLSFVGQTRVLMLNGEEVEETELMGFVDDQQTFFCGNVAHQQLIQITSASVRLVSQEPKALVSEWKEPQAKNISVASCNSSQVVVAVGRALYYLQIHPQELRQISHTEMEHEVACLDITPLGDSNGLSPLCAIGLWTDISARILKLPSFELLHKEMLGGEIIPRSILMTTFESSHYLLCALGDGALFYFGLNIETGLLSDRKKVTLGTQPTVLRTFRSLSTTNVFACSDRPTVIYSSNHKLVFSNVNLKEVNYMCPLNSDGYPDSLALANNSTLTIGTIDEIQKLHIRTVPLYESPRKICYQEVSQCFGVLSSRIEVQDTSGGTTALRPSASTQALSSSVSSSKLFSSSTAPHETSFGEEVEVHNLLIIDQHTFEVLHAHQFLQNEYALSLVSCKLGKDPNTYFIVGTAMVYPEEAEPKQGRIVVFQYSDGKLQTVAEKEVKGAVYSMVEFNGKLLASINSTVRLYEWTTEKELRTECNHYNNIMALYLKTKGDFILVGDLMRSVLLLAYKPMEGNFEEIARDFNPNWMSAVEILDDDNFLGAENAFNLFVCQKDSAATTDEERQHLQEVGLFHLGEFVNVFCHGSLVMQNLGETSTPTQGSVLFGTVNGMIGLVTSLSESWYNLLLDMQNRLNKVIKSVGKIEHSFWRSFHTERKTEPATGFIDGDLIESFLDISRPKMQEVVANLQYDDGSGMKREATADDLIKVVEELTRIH
Procedure, shortened: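 Percentage degradation of Cyclin D1 and CDK4 derived from densitometry of ECL Western blots on lysates of Calu-1 cells. Treatment was 16 h with compound at either 40 nM or 200 nM.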

SMILES: CNc1ccc(C(=O)Nc2ccc(N(C)C)nn2)c(NC2CC3(C2)CN(C(=O)CC(C)N2CCN(c4ccc(Nc5ncc6c(C)c(C(C)=O)c(=O)n(C7CCCC7)c6n5)nc4)CC2)C3)n1 (stereo not drawn) [CPD-224, 2-((2-(3-(4-(6-((6-acetyl-8-cyclopentyl-5-methyl-7-oxo-7,8-dihydropyrido[2,3-d]pyrimidin-2-yl)amino)pyridin-3-yl)piperazin-1-yl)butanoyl)-2-azaspiro[3.3]heptan-6-yl)amino)-N-(6-(dimethylamino)pyridazin-3-yl)-6-(methylamino)nicotinamide]
- IC50 (MCF7 cells): < 50 nM
- inhibition at 0.04 µM (CDK4): 30 to 50%
- inhibition at 0.2 µM (CDK4): 30 to 50%

SMILES: CNc1ccc(C(=O)Nc2ccc(N(C)C)nn2)c(NC2CC3(C2)CN(C(=O)C2CC24CCN(c2ccc(Nc5ncc6c(C)c(C(C)=O)c(=O)n(C7CCCC7)c6n5)nc2)CC4)C3)n1 (stereo not drawn) [CPD-324, 2-((2-(6-(6-((6-acetyl-8-cyclopentyl-5-methyl-7-oxo-7,8-dihydropyrido[2,3-d]pyrimidin-2-yl)amino)pyridin-3-yl)-6-azaspiro[2.5]octane-1-carbonyl)-2-azaspiro[3.3]heptan-6-yl)amino)-N-(6-(dimethylamino)pyridazin-3-yl)-6-(methylamino)nicotinamide]
- IC50 (MCF7 cells): < 50 nM
- inhibition at 0.04 µM (CDK4): < 30%
- inhibition at 0.2 µM (CDK4): < 30%

SMILES: CC(=O)c1c(C)c2cnc(Nc3ccc(N4CCN(C(CC(=O)N5CC6(CC(Nc7nc(NC(C)C)ccc7C(=O)Nc7ccc(N(C)C)nn7)C6)C5)C(F)(F)F)CC4)cn3)nc2n(C2CCCC2)c1=O (stereo not drawn) [CPD-367, 2-((2-(3-(4-(6-((6-acetyl-8-cyclopentyl-5-methyl-7-oxo-7,8-dihydropyrido[2,3-d]pyrimidin-2-yl)amino)pyridin-3-yl)piperazin-1-yl)-4,4,4-trifluorobutanoyl)-2-azaspiro[3.3]heptan-6-yl)amino)-N-(6-(dimethylamino)pyridazin-3-yl)-6-(isopropylamino)nicotinamide]
- IC50 (MCF7 cells): < 50 nM
- inhibition at 0.04 µM (CDK4): < 30%
- inhibition at 0.2 µM (CDK4): < 30%

SMILES: CNc1ccc(C(=O)Nc2cn(C)c(C3CC3)n2)c(NC2CC(NC(=O)CN3CCN(c4ccc(Nc5ncc6c(C)c(C(C)=O)c(=O)n(C7CCCC7)c6n5)nc4)CC3)C2)n1 (stereo not drawn) [CPD-217, 2-((3-(2-(4-(6-((6-acetyl-8-cyclopentyl-5-methyl-7-oxo-7,8-dihydropyrido[2,3-d]pyrimidin-2-yl)amino)pyridin-3-yl)piperazin-1-yl)acetamido)cyclobutyl)amino)-N-(2-cyclopropyl-1-methyl-1H-imidazol-4-yl)-6-(methylamino)nicotinamide]
- IC50 (MCF7 cells): > 100 nM
- inhibition at 0.04 µM (CDK4): 50 to 80%
- inhibition at 0.2 µM (CDK4): 50 to 80%

SMILES: CNc1ccc(C(=O)Nc2ccc(N(C)C)nn2)c(NC2CCN(C(=O)C3CC34CCN(c3ccc(Nc5ncc6c(C)c(C(C)=O)c(=O)n(C7CCCC7)c6n5)nc3)CC4)CC2)n1 (stereo not drawn) [CPD-328, 2-((1-(6-(6-((6-acetyl-8-cyclopentyl-5-methyl-7-oxo-7,8-dihydropyrido[2,3-d]pyrimidin-2-yl)amino)pyridin-3-yl)-6-azaspiro[2.5]octane-1-carbonyl)piperidin-4-yl)amino)-N-(6-(dimethylamino)pyridazin-3-yl)-6-(methylamino)nicotinamide]
- IC50 (MCF7 cells): < 50 nM
- inhibition at 0.04 µM (CDK4): < 30%
- inhibition at 0.2 µM (CDK4): < 30%

SMILES: CNc1ccc(C(=O)Nc2ccc(N(C)C)nn2)c(NC2CCN(C(=O)CCN3CCN(c4ccc(Nc5ncc6c(C)c(C(C)=O)c(=O)n(C7CCCC7)c6n5)nc4)CC3)CC2)n1 [CPD-203, 2-((1-(3-(4-(6-((6-acetyl-8-cyclopentyl-5-methyl-7-oxo-7,8-dihydropyrido[2,3-d]pyrimidin-2-yl)amino)pyridin-3-yl)piperazin-1-yl)propanoyl)piperidin-4-yl)amino)-N-(6-(dimethylamino)pyridazin-3-yl)-6-(methylamino)nicotinamide]
- IC50 (MCF7 cells): < 50 nM
- inhibition at 0.04 µM (CDK4): 50 to 80%
- inhibition at 0.2 µM (CDK4): 50 to 80%

SMILES: CC(=O)c1c(C)c2cnc(Nc3ccc(N4CCN(CCC(=O)N5CC6(CC(Nc7nc(NC(C)C)ccc7C(=O)Nc7cn(C)c(C8CC8)n7)C6)C5)CC4)cn3)nc2n(C2CCCC2)c1=O [CPD-323, 2-((2-(3-(4-(6-((6-acetyl-8-cyclopentyl-5-methyl-7-oxo-7,8-dihydropyrido[2,3-d]pyrimidin-2-yl)amino)pyridin-3-yl)piperazin-1-yl)propanoyl)-2-azaspiro[3.3]heptan-6-yl)amino)-N-(2-cyclopropyl-1-methyl-1H-imidazol-4-yl)-6-(isopropylamino)nicotinamide]
- IC50 (MCF7 cells): < 50 nM
- inhibition at 0.04 µM (CDK4): < 30%
- inhibition at 0.2 µM (CDK4): < 30%

SMILES: CC(=O)c1c(C)c2cnc(Nc3ccc(N4CCN(C5CCN(C(=O)C6CC(Nc7nc(NC(C)C)ccc7C(=O)Nc7ccc(N(C)C)nn7)C6)C5)CC4)cn3)nc2n(C2CCCC2)c1=O (stereo not drawn) [CPD-402, 2-((3-(3-(4-(6-((6-acetyl-8-cyclopentyl-5-methyl-7-oxo-7,8-dihydropyrido[2,3-d]pyrimidin-2-yl)amino)pyridin-3-yl)piperazin-1-yl)pyrrolidine-1-carbonyl)cyclobutyl)amino)-N-(6-(dimethylamino)pyridazin-3-yl)-6-(isopropylamino)nicotinamide]
- IC50 (MCF7 cells): 50 to 100 nM
- inhibition at 0.04 µM (CDK4): < 30%
- inhibition at 0.2 µM (CDK4): < 30%

SMILES: [2H]C([2H])([2H])Nc1ccc(C(=O)Nc2ccc(N(C)C)nn2)c(NC2CC3(C2)CN(C(=O)CC(C)N2CCN(c4ccc(Nc5ncc6c(C)c(C(C)=O)c(=O)n(C7CCCC7)c6n5)nc4)CC2)C3)n1 (stereo not drawn) [CPD-341, 2-((2-(3-(4-(6-((6-acetyl-8-cyclopentyl-5-methyl-7-oxo-7,8-dihydropyrido[2,3-d]pyrimidin-2-yl)amino)pyridin-3-yl)piperazin-1-yl)butanoyl)-2-azaspiro[3.3]heptan-6-yl)amino)-N-(6-(dimethylamino)pyridazin-3-yl)-6-((methyl-d3)amino)nicotinamide]
- IC50 (MCF7 cells): < 50 nM
- inhibition at 0.04 µM (CDK4): < 30%
- inhibition at 0.2 µM (CDK4): < 30%

SMILES: [2H]C([2H])([2H])Nc1ccc(C(=O)Nc2ccc(N(C)C)nn2)c(NC2CC3(C2)CN(C(=O)CC(N2CCN(c4ccc(Nc5ncc6c(C)c(C(C)=O)c(=O)n(C7CCCC7)c6n5)nc4)CC2)C(F)(F)F)C3)n1 (stereo not drawn) [CPD-342, 2-((2-(3-(4-(6-((6-acetyl-8-cyclopentyl-5-methyl-7-oxo-7,8-dihydropyrido[2,3-d]pyrimidin-2-yl)amino)pyridin-3-yl)piperazin-1-yl)-4,4,4-trifluorobutanoyl)-2-azaspiro[3.3]heptan-6-yl)amino)-N-(6-(dimethylamino)pyridazin-3-yl)-6-((methyl-d3)amino)nicotinamide]
- IC50 (MCF7 cells): < 50 nM
- inhibition at 0.04 µM (CDK4): < 30%
- inhibition at 0.2 µM (CDK4): < 30%

SMILES: CNc1ccc(C(=O)Nc2ccc(N(C)C)nn2)c(NC2CC(NC(=O)C(C)N3CCN(c4ccc(Nc5ncc6c(C)c(C(C)=O)c(=O)n(C7CCCC7)c6n5)nc4)CC3)C2)n1 (stereo not drawn) [CPD-242, 2-((3-(2-(4-(6-((6-acetyl-8-cyclopentyl-5-methyl-7-oxo-7,8-dihydropyrido[2,3-d]pyrimidin-2-yl)amino)pyridin-3-yl)piperazin-1-yl)propanamido)cyclobutyl)amino)-N-(6-(dimethylamino)pyridazin-3-yl)-6-(methylamino)nicotinamide]
- IC50 (MCF7 cells): > 100 nM
- inhibition at 0.04 µM (CDK4): 50 to 80%
- inhibition at 0.2 µM (CDK4): 50 to 80%

SMILES: CC(=O)c1c(C)c2cnc(Nc3ccc(N4CCN(C(C)C(=O)NC5CC(Nc6nc(NC(C)C)ccc6C(=O)Nc6ccc(N(C)C)nn6)C5)CC4)cn3)nc2n(C2CCCC2)c1=O (stereo not drawn) [CPD-326, 2-((3-(2-(4-(6-((6-acetyl-8-cyclopentyl-5-methyl-7-oxo-7,8-dihydropyrido[2,3-d]pyrimidin-2-yl)amino)pyridin-3-yl)piperazin-1-yl)propanamido)cyclobutyl)amino)-N-(6-(dimethylamino)pyridazin-3-yl)-6-(isopropylamino)nicotinamide]
- IC50 (MCF7 cells): 50 to 100 nM
- inhibition at 0.04 µM (CDK4): < 30%
- inhibition at 0.2 µM (CDK4): < 30%

SMILES: CC(=O)c1c(C)c2cnc(Nc3ccc(N4CCN(C(C)CC(=O)N5CCC(Nc6nc(NC(C)C)ccc6C(=O)Nc6ccc(N(C)C)nn6)CC5)CC4)cn3)nc2n(C2CCCC2)c1=O (stereo not drawn) [CPD-359, 2-((1-(3-(4-(6-((6-acetyl-8-cyclopentyl-5-methyl-7-oxo-7,8-dihydropyrido[2,3-d]pyrimidin-2-yl)amino)pyridin-3-yl)piperazin-1-yl)butanoyl)piperidin-4-yl)amino)-N-(6-(dimethylamino)pyridazin-3-yl)-6-(isopropylamino)nicotinamide]
- IC50 (MCF7 cells): < 50 nM
- inhibition at 0.04 µM (CDK4): < 30%
- inhibition at 0.2 µM (CDK4): < 30%

SMILES: CC(=O)c1c(C)c2cnc(Nc3ccc(N4CCN(C5CCN(C(=O)[C@H]6CC[C@H](Nc7nc(NC(C)C)ccc7C(=O)Nc7ccc(N(C)C)nn7)CC6)C5)CC4)cn3)nc2n(C2CCCC2)c1=O (stereo partly drawn) [CPD-399, 2-((−4-(3-(4-(6-((6-acetyl-8-cyclopentyl-5-methyl-7-oxo-7,8-dihydropyrido[2,3-d]pyrimidin-2-yl)amino)pyridin-3-yl)piperazin-1-yl)pyrrolidine-1-carbonyl)cyclohexyl)amino)-N-(6-(dimethylamino)pyridazin-3-yl)-6-(isopropylamino)nicotinamide]
- IC50 (MCF7 cells): < 50 nM
- inhibition at 0.04 µM (CDK4): < 30%
- inhibition at 0.2 µM (CDK4): < 30%

SMILES: [2H]C([2H])([2H])Nc1ccc(C(=O)Nc2cn(C)c(C3CC3)n2)c(NC2CC3(CC(NC(=O)CN4CCN(c5ccc(Nc6ncc7c(C)c(C(C)=O)c(=O)n(C8CCCC8)c7n6)nc5)CC4)C3)C2)n1 (stereo not drawn) [CPD-237, 2-((6-(2-(4-(6-((6-acetyl-8-cyclopentyl-5-methyl-7-oxo-7,8-dihydropyrido[2,3-d]pyrimidin-2-yl)amino)pyridin-3-yl)piperazin-1-yl)acetamido)spiro[3.3]heptan-2-yl)amino)-N-(2-cyclopropyl-1-methyl-1H-imidazol-4-yl)-6-((methyl-d3)amino)nicotinamide]
- IC50 (MCF7 cells): > 100 nM
- inhibition at 0.04 µM (CDK4): 50 to 80%
- inhibition at 0.2 µM (CDK4): 50 to 80%
